Measured values published in patent US10238670B2, “9-aminomethyl minocycline compounds and methods of use thereof in urinary tract infection (UTI) treatment” (Paratek Pharmaceuticals, Inc., priority 2016, dated 2019).
≈ marks a conversion by molar mass, not a printed value.

Assays:
Test in all cases: In vitro MIC, 2010 surveillance isolates
E. faecium VS = assay type: cell-based
MSSA = assay type: cell-based
MRSA = assay type: cell-based
MR CoNS = assay type: cell-based, Coagulase-Negative Staphylococcus
MS CoNS = assay type: cell-based, Coagulase-Negative Staphylococcus
E. faecium VNS = assay type: cell-based
E. faecalis VS = assay type: cell-based
E. faecalis VNS = assay type: cell-based

CN[C@H](CC(C)C)C(=O)N[C@H]1C(=O)N[C@@H](CC(N)=O)C(=O)N[C@H]2C(=O)N[C@H]3C(=O)N[C@H](C(=O)N[C@H](C(=O)O)c4cc(O)cc(O)c4-c4cc3ccc4O)[C@H](O)c3ccc(c(Cl)c3)Oc3cc2cc(c3O[C@@H]2O[C@H](CO)[C@@H](O)[C@H](O)[C@H]2O[C@H]2C[C@](C)(N)[C@H](O)[C@H](C)O2)Oc2ccc(cc2Cl)[C@H]1O [Vancomycin]
% R (resistance) (E. faecium VS; Asia/Pac, Eucast breakpoints): 0% | MIC90 (E. faecium VS; Asia/Pac, N=106): 1 µg/mL (≈ 0.69 µM) | % R (resistance) (E. faecium VS; Europe, Eucast breakpoints): 0% | MIC90 (E. faecium VS; Europe, N=303): 1 µg/mL (≈ 0.69 µM) | % R (resistance) (E. faecium VS; L. Amer, CLSI breakpoints): 0% | MIC90 (E. faecium VS; L. Amer, N=51): 1 µg/mL (≈ 0.69 µM) | % R (resistance) (E. faecium VS; N America, CLSI breakpoints): 0% | MIC90 (E. faecium VS; N America, N=115): 1 µg/mL (≈ 0.69 µM) | % R (resistance) (MSSA; Asia/Pac, Eucast breakpoints): 0% | MIC90 (MSSA; Asia/Pac, N=641): 1 µg/mL (≈ 0.69 µM) | % R (resistance) (MSSA; Europe, Eucast breakpoints): 0% | MIC90 (MSSA; Europe, N=2109): 1 µg/mL (≈ 0.69 µM) | % R (resistance) (MSSA; L. Amer, CLSI breakpoints): 0% | MIC90 (MSSA; L. Amer, N=590): 1 µg/mL (≈ 0.69 µM) | % R (resistance) (MSSA; N America, CLSI breakpoints): 0% | MIC90 (MSSA; N America, N=2373): 1 µg/mL (≈ 0.69 µM) | % R (resistance) (MRSA; Asia/Pac, Eucast breakpoints): 0% | MIC90 (MRSA; Asia/Pac, N=428): 1 µg/mL (≈ 0.69 µM) | % R (resistance) (MRSA; Europe, Eucast breakpoints): 0% | MIC90 (MRSA; Europe, N=750): 1 µg/mL (≈ 0.69 µM) | % R (resistance) (MRSA; L. Amer, CLSI breakpoints): 0% | MIC90 (MRSA; L. Amer, N=506): 1 µg/mL (≈ 0.69 µM) | % R (resistance) (MRSA; N America, CLSI breakpoints): 0% | MIC90 (MRSA; N America, N=2508): 1 µg/mL (≈ 0.69 µM) | % R (resistance) (MR CoNS; Asia/Pac, Eucast breakpoints): 1.3% | MIC90 (MR CoNS; Asia/Pac, N=77): 2 µg/mL (≈ 1.38 µM) | % R (resistance) (MR CoNS; Europe, Eucast breakpoints): 0.4% | MIC90 (MR CoNS; Europe, N=510): 2 µg/mL (≈ 1.38 µM) | % R (resistance) (MR CoNS; L. Amer, CLSI breakpoints): 0% | MIC90 (MR CoNS; L. Amer, N=301): 2 µg/mL (≈ 1.38 µM) | % R (resistance) (MR CoNS; N America, CLSI breakpoints): 0% | MIC90 (MR CoNS; N America, N=461): 2 µg/mL (≈ 1.38 µM) | % R (resistance) (MS CoNS; Asia/Pac, Eucast breakpoints): 0% | MIC90 (MS CoNS; Asia/Pac, N=18): 2 µg/mL (≈ 1.38 µM) | % R (resistance) (MS CoNS; Europe, Eucast breakpoints): 1.1% | MIC90 (MS CoNS; Europe, N=185): 2 µg/mL (≈ 1.38 µM) | % R (resistance) (MS CoNS; L. Amer, CLSI breakpoints): 0% | MIC90 (MS CoNS; L. Amer, N=67): 2 µg/mL (≈ 1.38 µM) | % R (resistance) (MS CoNS; N America, CLSI breakpoints): 0% | MIC90 (MS CoNS; N America, N=191): 2 µg/mL (≈ 1.38 µM) | % R (resistance) (E. faecium VNS; Asia/Pac, Eucast breakpoints): 100% | MIC90 (E. faecium VNS; Asia/Pac, N=24): > 16 µg/mL | % R (resistance) (E. faecium VNS; Europe, Eucast breakpoints): 100% | MIC90 (E. faecium VNS; Europe, N=71): > 16 µg/mL | % R (resistance) (E. faecium VNS; L. Amer, CLSI breakpoints): 100% | MIC90 (E. faecium VNS; L. Amer, N=41): > 16 µg/mL | % R (resistance) (E. faecium VNS; N America, CLSI breakpoints): 99.4% | MIC90 (E. faecium VNS; N America, N=478): > 16 µg/mL | % R (resistance) (E. faecalis VS; Asia/Pac, Eucast breakpoints): 0% | MIC90 (E. faecalis VS; Asia/Pac, N=214): 2 µg/mL (≈ 1.38 µM) | % R (resistance) (E. faecalis VS; Europe, Eucast breakpoints): 0% | MIC90 (E. faecalis VS; Europe, N=669): 2 µg/mL (≈ 1.38 µM) | % R (resistance) (E. faecalis VS; L. Amer, CLSI breakpoints): 0% | MIC90 (E. faecalis VS; L. Amer, N=290): 2 µg/mL (≈ 1.38 µM) | % R (resistance) (E. faecalis VS; N America, CLSI breakpoints): 0% | MIC90 (E. faecalis VS; N America, N=863): 2 µg/mL (≈ 1.38 µM) | range of MICs (N <10, shown instead of MIC90) (E. faecalis VNS; Asia/Pac, N=1): >16 | % R (resistance) (E. faecalis VNS; Europe, Eucast breakpoints): 100% | range of MICs (N <10, shown instead of MIC90) (E. faecalis VNS; Europe, N=8): > 16 | % R (resistance) (E. faecalis VNS; L. Amer, CLSI breakpoints): 100% | range of MICs (N <10, shown instead of MIC90) (E. faecalis VNS; L. Amer, N=7): > 16 | % R (resistance) (E. faecalis VNS; N America, CLSI breakpoints): 92.1% | MIC90 (E. faecalis VNS; N America, N=38): > 16 µg/mL
